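Protocol summary: plate cells (96-well), add compound at 5 concentrations, incubate 48 h, interpolate endpoints linearly. GI50: concentration for 50% inhibition of growth. The concentration for full growth arrest is given as TGI.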
Assays:
Assay in all cases: NCI-60 cell line screen, 48 h
[1] = test system: A549 NSCLC
[2] = test system: TK-10 renal
[3] = test system: A498 renal
[4] = test system: SF-268 CNS
[5] = test system: UO-31 renal
[6] = test system: IGROV1 ovarian
[7] = test system: HCC-2998 colon
[8] = test system: OVCAR-5 ovarian
[9] = test system: RPMI-8226 leukemia
[10] = test system: HOP-92 NSCLC

Compound | TGI [1] [µM] | TGI [2] [µM] | TGI [3] [µM] | TGI [4] [µM] | TGI [5] [µM] | TGI [6] [µM] | TGI [7] [µM] | TGI [8] [µM] | TGI [9] [µM] | TGI [10] [µM] | GI50 [1] [µM] | GI50 [2] [µM] | GI50 [5] [µM] | GI50 [6] [µM] | GI50 [7] [µM] | GI50 [8] [µM] | GI50 [3] [µM] | GI50 [4] [µM] | GI50 [10] [µM] | GI50 [9] [µM]
CON(C)c1nc(N)c(C#N)c(C#N)c1C#N | > 10 | > 10 | > 10 | > 10 | > 10 | > 10 | > 10 | > 10 | > 10 |  |  |  |  |  |  |  |  |  |  | 
C=C1CC[C@@]2(C)[C@@H]([C@@H]1C)[C@H]1CC[C@@H]3[C@@]4(C)CC[C@H](O)C(C)(C)[C@@H]4CC[C@@]3(C)[C@]1(C)C[C@@H]2O | 4.65 | 27 | 4.35 | 9.76 | 5.67 | 3.77 |  | 17.7 | > 100 | 4.82 |  |  |  |  |  |  |  |  |  | 
C=C1C(=O)OC2C1CCC(=C)C1CC(O)C(=C)C12 (centres undefined) | 55.7 | 20.6 | 38 | 31.7 | 29.5 | 28 | 27.9 | 26.3 | 23 | 11.3 |  |  |  |  |  |  |  |  |  | 
Cc1cc(OCc2nc(N)nc(N)c2-c2ccc(Cl)c(Cl)c2)ccc1[N+](=O)[O-] | > 100 | 13.4 | 1.3 | 36.5 | 30.5 | > 41.1 |  | 47 | > 78.7 | > 60 |  |  |  |  |  |  |  |  |  | 
O=C([CH-]C(=O)c1ccccc1)c1ccccc1.[C-]#[O+].[C-]#[O+].[Ir] | > 100 | > 100 |  |  | > 100 | > 100 | > 100 | > 100 |  |  | 82.9 | > 100 | 45.2 | 88.3 | > 100 | > 100 |  |  |  | 
O=C(O)c1cc2ccccc2c(Cc2c(O)c(C(=O)O)cc3ccccc23)c1O | > 100 | > 100 | > 100 | > 100 | > 100 | > 100 | > 100 | > 100 | > 100 | > 100 |  |  |  |  |  |  |  |  |  | 
COc1ccc(CN(CCN(C)C)c2ccccn2)cc1 (tested in a mixture with another compound) |  | > 100 | > 100 | > 100 | > 100 | > 100 |  | > 100 |  | > 100 |  |  |  |  |  |  |  |  |  | 
Cc1cc(N(CCC#N)S(=O)(=O)c2ccccc2)ccc1C=Nc1cccc(C(=O)O)c1 | > 100 | > 100 |  | > 100 | > 100 | > 100 | > 100 | > 100 | > 100 | > 100 |  |  |  |  |  |  |  |  |  | 
COc1cccc(N/C(C)=C2/CCOC2=O)c1 | > 10 | > 10 | > 10 | > 10 | > 10 | > 10 | > 10 | > 10 | > 10 |  |  |  |  |  |  |  |  |  |  | 
Oc1cc(O)c2c(c1)O[C@H](c1ccc(O)c(O)c1)[C@@H](O)C2 | > 100 | > 100 |  | > 100 | > 100 | > 100 | > 100 | > 100 | > 100 | > 100 |  |  |  |  |  |  |  |  |  | 
CC1(CO)C(O)CCC2(C)C1CCC1CC3CC12CCC3(O)CO (centres undefined) | > 100 |  | 99 | > 100 | 98.8 | > 100 | > 100 | > 100 | > 100 | > 100 |  |  |  |  |  |  |  |  |  | 
O=C(Nc1ccccc1)c1cc2ccccc2c(N=Nc2cccc([N+](=O)[O-])c2)c1O | > 100 | > 100 | > 100 | > 100 | > 100 | > 100 | > 100 | > 100 |  | > 100 |  |  |  |  |  |  |  |  |  | 
C[C@@H]1C[C@H]2OC(=O)[C@@]3(C)CCC[C@@](C)([C@@H]23)[C@@]1(O)CCc1ccoc1 | > 100 | > 100 | > 100 | > 100 | > 100 | > 100 | > 100 | > 100 | > 100 | > 100 |  |  |  |  |  |  |  |  |  | 
C1=N[C@]23C(=N[C@H](N=C2NCc2ccco2)[C@]24N=CNC2=N[C@H]3N=C4NCc2ccco2)N1 | > 100 | > 100 | > 100 | > 100 | > 100 | > 100 | > 100 | > 100 | > 100 | > 100 | > 100 | > 100 | > 100 | > 100 | > 100 | > 100 | 5.8 | > 100 | 5.34 | > 100
Cc1c(C)c2c(c(C)c1OC(=O)CCC(=O)[O-])CCC(C)(CCCCCCCCCCC[P+](c1ccccc1)(c1ccccc1)c1ccccc1)O2 (centres undefined) | 4.58 | 1.18 | 0.41 |  | 1.42 |  | 0.809 | 0.836 | 0.148 | 0.276 | 0.234 | 0.244 | 0.744 |  | 0.214 | 0.22 | 0.0851 |  | 0.078 | 0.0151
O=C(NN1C(=O)C(Cl)C1c1cccc(O)c1)c1ccccc1O (centres undefined) | > 100 | > 100 | > 100 | > 100 | > 100 | > 100 | > 100 |  |  |  |  |  |  |  |  |  |  |  |  | 
